Values joined by “and” are separate entries in the source; they are usually repeats but may differ in a detail not shown here. Identical values can stand only once.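 These data come from cells grown in 96-well plates and exposed to compound for 48 hours at five concentrations. GI50 = concentration required for 50% inhibition of growth. TGI: total growth inhibition.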
Legend:
Experiment in all cases: NCI anticancer screen, dose series, 48 h
K-562 leukemia = tested on: K-562 leukemia
CCRF-CEM leukemia = tested on: CCRF-CEM leukemia
SK-MEL-2 melanoma = tested on: SK-MEL-2 melanoma
A549 NSCLC = tested on: A549 NSCLC
COLO 205 colon = tested on: COLO 205 colon
NCI-H522 lung = tested on: NCI-H522 lung
OVCAR-4 ovarian = tested on: OVCAR-4 ovarian
SK-MEL-5 melanoma = tested on: SK-MEL-5 melanoma
SNB-75 CNS = tested on: SNB-75 CNS
U251 CNS = tested on: U251 CNS

| Structure (SMILES) | GI50 (K-562 leukemia) [nM] | TGI (K-562 leukemia) | GI50 (CCRF-CEM leukemia) | TGI (CCRF-CEM leukemia) | GI50 (SK-MEL-2 melanoma) [nM] | TGI (SK-MEL-2 melanoma) | GI50 (A549 NSCLC) [nM] | TGI (A549 NSCLC) [µM] | GI50 (COLO 205 colon) [nM] | TGI (COLO 205 colon) | GI50 (NCI-H522 lung) [nM] | TGI (NCI-H522 lung) [µM] | TGI (OVCAR-4 ovarian) | TGI (SK-MEL-5 melanoma) | TGI (SNB-75 CNS) | TGI (U251 CNS) | GI50 (OVCAR-4 ovarian) [nM] | GI50 (SK-MEL-5 melanoma) [nM] | GI50 (SNB-75 CNS) [nM] | GI50 (U251 CNS) [nM] |
| --- | --- | --- | --- | --- | --- | --- | --- | --- | --- | --- | --- | --- | --- | --- | --- | --- | --- | --- | --- | --- |
| CN1CCN(c2ccc3nc(-c4ccc(OCCCN5C(=O)c6cccc7cccc(c67)C5=O)cc4)[nH]c3c2)CC1 | 889 | 4.54 µM | 2620 nM | 7.48 µM | 25200 | 62.4 µM | 16300 | 62.4 | 4530 | > 100 µM | 24900 | > 88.8 |  |  |  |  |  |  |  |  |
| Cc1c2cc[n+](C)cc2c(COC2OC(CO)C(O)C2O)c2c3ccccc3n(C)c12 (stereo not drawn) |  | > 100 µM |  | > 100 µM |  | > 100 µM |  | > 100 |  | > 100 µM |  | > 100 | > 100 µM | > 100 µM | 92.4 µM | > 100 µM |  |  |  |  |
| NC(=O)c1cc2ccccc2c(N=Nc2ccccc2)c1O |  | > 100 µM |  | > 100 µM |  | > 100 µM |  | > 100 |  | > 100 µM |  | > 100 | > 100 µM | > 100 µM | > 100 µM | 49.2 µM |  |  |  |  |
| CC(=O)OC1CC2(O)C(CCC3(C)C(c4ccc(=O)oc4)CCC32O)C2(C)CCC(O)C=C12 (stereo not drawn) | 12.8 | 0.256 µM and 0.178 µM | 3.87 nM and 37.5 nM | 0.0519 µM and 0.0405 µM | 37.5 | 0.0542 µM and 0.0976 µM | 6.24 | 0.0272 |  | 0.168 µM and 0.139 µM |  | 0.00626 | 0.0686 µM and 0.0495 µM | 0.046 µM and 0.04 µM | 0.188 µM and 0.116 µM | 0.151 µM and 0.109 µM | 37.5 | 37.5 | 37.5 | 37.5 |
| CCC1=C(C)C2=NC1=CC1=NC(=C(CC)/C1=C/O)C=C1N=C3C(=C1C)C(=O)C(C(=O)OC)C3=C1NC(=C2)C(C)C1CCC(=O)OC (stereo not drawn) |  | > 100 µM |  | > 100 µM |  | > 100 µM |  | > 100 |  | > 100 µM |  | > 100 | > 100 µM | > 100 µM | > 100 µM | > 100 µM |  |  |  |  |
| COc1cccc2c1C(=O)c1c(O)c3c(c(O)c1C2=O)C[C@@](O)(C(C)=O)C[C@@H]3OC1CC(N)C(O)C(C)O1 (stereo partly drawn) | < 10 |  |  |  | 122 |  | 15.3 |  |  | 1.28 µM [middle of 6 runs] | < 15.5 |  |  |  |  |  | 64.3 | < 18 | 16.1 | < 14.5 |
| CC(=O)O[C@H]1C(=O)[C@]2(C)[C@@H](OC(=O)OCC(O)CO)C[C@H]3OC[C@@]3(OC(C)=O)[C@H]2[C@H](OC(=O)c2ccccc2)[C@]2(O)C[C@H](OC(=O)[C@H](O)[C@@H](NC(=O)c3ccccc3)c3ccccc3)C(C)=C1C2(C)C (stereo partly drawn) |  | > 100 µM |  | 31 µM |  |  |  | > 100 |  | 0.683 µM |  |  | > 83.9 µM | 19.6 µM | < 0.01 µM | 15.6 µM |  |  |  |  |
| CCP(=O)(CC)C(Cl)(Cl)C(=O)NC |  | > 100 µM |  | > 100 µM |  | > 100 µM |  | > 100 |  | > 100 µM |  | > 100 | > 100 µM | > 100 µM | > 100 µM | > 100 µM |  |  |  |  |
| O=c1c(-c2ccccc2)c[nH]c2cc([N+](=O)[O-])c(/C(Cl)=C/c3ccccc3)cc12 |  | 20.7 µM |  | 20.3 µM |  | > 100 µM |  | 19.6 |  | > 38.2 µM |  | 16.3 | 8.64 µM | 25.8 µM | 24.1 µM | 24.4 µM |  |  |  |  |
| Cc1ccc(S(=O)(=O)OC2CN3CCC2CC3)cc1 (stereo not drawn) |  | > 100 µM |  | > 100 µM |  | > 100 µM |  | > 100 |  | > 100 µM |  | > 100 | > 100 µM | > 100 µM | > 100 µM | > 100 µM |  |  |  |  |
| CC(C)(C)CC(C)(C)Cc1ccc(OCCOCC[N+](C)(C)Cc2ccccc2)cc1 | 966 | 3.57 µM | 1310 nM | 3.72 µM |  |  | 5060 | 19.7 |  |  | 1550 | 4.45 | 3.94 µM | 1.79 µM | 3.47 µM | 3.08 µM | 681 | 517 | 1630 | 1560 |
| N#Cc1ccc(Nc2nc3nc[nH]c3c(=O)[nH]2)cc1 |  |  |  | > 100 µM |  | > 100 µM |  | > 100 |  | > 100 µM |  | > 100 | > 100 µM | > 100 µM | > 100 µM | > 100 µM |  |  |  |  |
| CCCCN(CCCC)CC(=O)c1ccc2cc(Cl)c3ccccc3c2c1 |  | > 100 µM |  | > 100 µM |  | 69.9 µM |  | > 100 |  | 34.1 µM |  | 47.3 | 69.1 µM | 34.6 µM | 67.3 µM | 68.8 µM |  |  |  |  |
| O=C(CCN1CCCC1)Nc1ccc2c(NCCCCc3ccccc3)c3ccccc3nc2c1 |  |  |  |  | 1760 | 3.34 µM |  |  | 453 | 1.87 µM |  |  | 2.52 µM | 2.91 µM | 2.65 µM |  | 1120 | 1560 | 1330 |  |
| CCOC(=O)c1c(NC(=S)NCc2ccccc2)sc2c1CCN(C)C2 |  | 46.1 µM |  | 40.3 µM |  | > 100 µM |  | > 100 |  | > 100 µM |  |  |  | > 100 µM |  |  |  |  |  |  |

From PubChem BioAssay (NCI)
